Test results taken from patent US8314092B2, “Substituted [(5H-pyrrolo[2,1-c][1,4]benzodiazepin-11-yl)piperazin-1-yl]-2,2-dimethylpropanoic acid compounds as dual activity H1 inverse agonists/5-HT2A antagonists” (Eli Lilly and Company, priority 2011, dated 2012).
pKi: −log10 of the molar value. Where a name gives a salt, the structure may show the parent alone.

How the values were obtained:
[1] = tested on: Wistar rats; test: Sleep and behavioral monitoring in rats (EEG, EMG, motion); type: in vivo; conditions: rat, 3 mg/kg
Procedure: Sleep and behavioral monitoring in rats: Representative compounds of the present invention are tested in rats for their ability to increase the amount of sleep or decrease sleep interruption or both without undesired effects such as inhibition of REM sleep, waking motor impairment, and/or rebound insomnia. Test animals are continuously monitored by electro-encephalograms (EEG), electromyograms (EMG), and motion to measure cumulative nonREM sleep, cumulative total sleep, average sleep bout duration, longest sleep bout duration, rebound insomnia, REM sleep inhibition and locomotor activity intensity during wakefulness. Methods for such studies are known in the art (see for example methods described in Edgar D M, Seidel W F. Modafinil induces wakefulness without intensifying motor activity or subsequent rebound hypersomnolence in the rat. J Pharmacology & Experimental Therapeutics 1997; 283: 757-769; van Gelder R N, Edgar D M, Dement W C. Real-time automated sleep scoring: validation of a microcomputer-based system for mice. Sleep 1991, 14: 48-55; and Gross B A, Walsh C M, Turakhia A A, Booth V, Mashour G A, Poe G R. Open-source logic-based automated sleep scoring software using electrophysiological recordings in rats. J Neurosci Methods. 2009; 184(1):10-8.) Studies are conducted as follows: Animal preparation. Adult, male Wistar rats (approximately 270-300 g at time of surgery) are surgically fitted for chronic recording of EEG, EMG, and motion as follows: Rats are surgically prepared with a cranial implant consisting of four stainless steel screws for EEG recording (two frontal [3.9 mm anterior from bregma, and ±2.0 mm mediolaterally] and two occipital [6.4 mm posterior from bregma, ±5.5 mm mediolaterally]), and with two Teflon-coated stainless steel wires for EMG recording (positioned under the nuchal trapezoid muscles). All leads are soldered to a miniature connector (Microtech, Boothwyn, Pa.) prior to surgery. The implant assembly is affixed to the skull by the combination of the stainless steel EEG recording screws, cyanoacrylate applied between the implant connector and skull, and dental acrylic. Locomotor activity is monitored via a miniature transmitter (Minimitter PDT4000G, Philips Respironics, Bend, Oreg.) surgically placed into the abdomen. At least 3 weeks are allowed for recovery. Recording environment. Each rat is housed individually within a microisolator cage modified with an inserted polycarbonate filter-top riser to allow more vertical headroom. A flexible cable that minimally restricts movement is connected at one end to a commutator affixed to the cage top and at the other end to the animal's cranial implant. Each cage is located within separate, ventilated compartments of a stainless steel sleep-wake recording chamber. Food and water are available ad libitum and the ambient temperature is maintained at about 23±1° C. A 24-hr. light-dark cycle (LD 12:12) using fluorescent light is maintained throughout the study. Relative humidity averages approximately 50%. Animals are undisturbed for at least 30 hrs before and after each treatment. Study design and dosing. The vehicle (placebo, methylcellulose 15 centipoise 0.25% in water) or one of the test compound dose levels is administered orally at 1 mL/kg pseudo-randomly such that no rat receives the same treatment twice, and no rat receives more than two of the 8 treatments in any one study. Each rat is removed from its cage for about a minute to be weighed and treated. At least 6 days “washout” period precede and follow each treatment. Data collection. […]

[2] = target: Adrenergic alpha2A (Homo sapiens, UniProt P08913); test: Adrenergic alpha2A binding
From the text: (§1) Further, the compounds of the invention may be tested in binding assays and functional activity assays by well known methods for other physiologically important receptors such as, but not limited to, the hERG channel, other serotonin receptors (specifically 5-HT1A, 5-HT1B, 5-HT1D, 5-HT1E, 5-HT1F receptors, lack of agonist activity at 5-HT2B receptors, 5-HT2C, 5-HT4, 5-HTS, 5-HT6, and 5-HT7 receptors), muscarinic receptors, dopaminergic receptors (specifically D1, D2, and D3), GABAA receptors, adrenergic receptors and monoamine transporters. Certain exemplified compounds are tested at these receptors and are shown to lack significant activity.

[3] = target: human recombinant H1 receptor (Homo sapiens, UniProt P35367); test: H1 competition binding assay ([3H]-Pyrilamine SPA); parameters: expressed in transfected cells
Procedure: [^3H]-Pyrilamine binding experiments are carried out in SPA (scintillation proximity assay) 96-well format. Membranes used in this assay are prepared from HEK-293 cells stably expressing recombinant H1 receptor (human). The incubation is initiated by the addition of a mixture of WGA PVT SPA beads (1 mg/well, Perkin Elmer (MA, USA) RPNQ0001) and 3 μg membranes to assay buffer (67 mM Tris; pH 7.6) containing 3.5 nM [^3H]-Pyrilamine and varying concentrations of the test compound (10 point concentration response curves). Non-specific binding is determined in the presence of 10 μM Triprolidine. Samples are incubated for four hours at room temperature (22° C.) and then read in a Microbeta Trilux.
(§2) Curves are evaluated using a 4-parameter logistic nonlinear equation to obtain the concentration of competitor causing 50% inhibition of radioligand binding (IC50). Equilibrium dissociation constants (Ki) are calculated according to the equation Ki=IC50/(1+L/Kd), where L equals the concentration of radioligand used in the experiment and Kd equals the equilibrium dissociation constant of the radioligand for the receptor, determined from standard saturation analysis or homologous competition experiments. Reported values for Ki, where n values are indicated, are shown as geometric mean±the standard error of the mean (SEM), with the number of replicate determinations indicated by n. […]

[4] = target: Serotonin Transporter (Homo sapiens, UniProt P31645); test: Serotonin transporter assay; type: binding
Serotonin Transporter, sequence (P31645 whole entry): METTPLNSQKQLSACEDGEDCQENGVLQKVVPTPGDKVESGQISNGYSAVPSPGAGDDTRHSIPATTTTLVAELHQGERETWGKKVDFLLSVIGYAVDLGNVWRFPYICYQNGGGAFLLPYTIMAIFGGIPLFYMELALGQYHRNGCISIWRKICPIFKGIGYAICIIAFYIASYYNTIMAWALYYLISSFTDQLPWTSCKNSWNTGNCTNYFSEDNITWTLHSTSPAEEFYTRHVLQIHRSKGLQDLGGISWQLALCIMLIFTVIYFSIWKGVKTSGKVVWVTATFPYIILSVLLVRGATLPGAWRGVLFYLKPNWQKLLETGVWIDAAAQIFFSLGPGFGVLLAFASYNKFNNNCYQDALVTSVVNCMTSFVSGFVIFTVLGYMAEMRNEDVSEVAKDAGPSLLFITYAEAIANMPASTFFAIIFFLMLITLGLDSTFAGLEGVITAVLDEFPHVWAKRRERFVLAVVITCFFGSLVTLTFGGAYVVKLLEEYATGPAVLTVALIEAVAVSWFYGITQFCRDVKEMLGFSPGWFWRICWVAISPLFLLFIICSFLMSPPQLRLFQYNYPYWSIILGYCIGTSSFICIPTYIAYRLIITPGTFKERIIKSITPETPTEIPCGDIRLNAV
From the text: as §1

[5] = target: Adrenergic alpha2C (Homo sapiens, UniProt P18825); test: Adrenergic alpha2C binding
From the text: as §1

[6] = target: Dopamine Transporter (Homo sapiens, UniProt Q01959); test: Dopamine transporter assay; type: binding
From the text: as §1

[7] = target: 5-HT5 (Homo sapiens, UniProt P47898); test: 5-HT5 binding
5-HT5, sequence (P47898 whole entry, species assumed): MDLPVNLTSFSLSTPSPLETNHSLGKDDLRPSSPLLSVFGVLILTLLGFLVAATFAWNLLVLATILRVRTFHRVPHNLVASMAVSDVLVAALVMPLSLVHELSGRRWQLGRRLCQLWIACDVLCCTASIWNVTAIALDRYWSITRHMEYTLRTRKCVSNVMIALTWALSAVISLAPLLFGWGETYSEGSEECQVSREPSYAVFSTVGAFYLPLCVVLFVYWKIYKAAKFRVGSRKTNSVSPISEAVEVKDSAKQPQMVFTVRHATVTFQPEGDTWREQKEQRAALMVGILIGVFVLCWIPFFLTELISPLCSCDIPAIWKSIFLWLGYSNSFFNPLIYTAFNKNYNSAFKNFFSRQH
From the text: as §1

[8] = target: 5-HT1A (Homo sapiens, UniProt P08908); test: 5-HT1A binding
From the text: as §1

[9] = target: Adrenergic alpha1A (Homo sapiens, UniProt P35348); test: Adrenergic alpha1A binding
Adrenergic alpha1A, sequence (P35348 whole entry): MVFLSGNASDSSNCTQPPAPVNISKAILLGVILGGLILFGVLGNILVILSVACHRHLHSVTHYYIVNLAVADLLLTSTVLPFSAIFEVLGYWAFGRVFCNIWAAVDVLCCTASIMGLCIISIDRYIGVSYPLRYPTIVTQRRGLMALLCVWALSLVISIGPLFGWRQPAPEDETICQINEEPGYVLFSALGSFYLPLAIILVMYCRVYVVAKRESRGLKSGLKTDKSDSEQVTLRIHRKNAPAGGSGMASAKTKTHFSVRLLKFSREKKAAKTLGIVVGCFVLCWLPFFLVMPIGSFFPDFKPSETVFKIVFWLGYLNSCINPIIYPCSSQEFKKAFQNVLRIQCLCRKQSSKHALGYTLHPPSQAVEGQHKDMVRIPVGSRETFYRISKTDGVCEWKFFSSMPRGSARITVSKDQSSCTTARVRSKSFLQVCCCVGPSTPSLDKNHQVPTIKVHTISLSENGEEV
From the text: as §1

[10] = target: T1, recombinant 5-HT2c receptor (human) (Homo sapiens, UniProt P28335); test: 5-HT2c competition binding assay ([125I]-DOI SPA)
T1 construct: expressed in transfected cells
Procedure: [^125I]-(±)DOI binding experiments are carried out in SPA 96-well format. Membranes used in this assay are prepared from AV-12 cells stably expressing recombinant 5-HT2c receptor (human). The incubation is initiated by the addition of a mixture of WGA PVT SPA beads (0.5 mg/well, Perkin Elmer (MA, USA), RPNQ0001) and 2.5 μg membranes to assay buffer (50 mM Tris-HCl, 10 mM MgCl2, 0.5 mM EDTA, 10 μM pargyline, 0.1% ascorbic acid, pH7.4) containing 0.2 nM [[^125I]-(±)DOI and varying concentrations of the test compound (10 point concentration response curves). Non-specific binding is determined in the presence of 20 μM 1-(1-Naphthyl)piperazine. Samples are incubated for four hours at room temperature (22° C.) and then read in a Microbeta Trilux.
as §2, with “experiments.” for “experiments. Reported values for Ki, where n values are indicated, are shown as geometric mean±the standard error of the mean (SEM), with the number of replicate determinations indicated by n.”

[11] = target: T2, recombinant 5-HT2A receptor (human) (Homo sapiens, UniProt P28223); test: 5-HT2A competition binding assay ([3H]-Ketanserin SPA)
T2 construct: expressed in transfected cells
T2 sequence (P28223 whole entry): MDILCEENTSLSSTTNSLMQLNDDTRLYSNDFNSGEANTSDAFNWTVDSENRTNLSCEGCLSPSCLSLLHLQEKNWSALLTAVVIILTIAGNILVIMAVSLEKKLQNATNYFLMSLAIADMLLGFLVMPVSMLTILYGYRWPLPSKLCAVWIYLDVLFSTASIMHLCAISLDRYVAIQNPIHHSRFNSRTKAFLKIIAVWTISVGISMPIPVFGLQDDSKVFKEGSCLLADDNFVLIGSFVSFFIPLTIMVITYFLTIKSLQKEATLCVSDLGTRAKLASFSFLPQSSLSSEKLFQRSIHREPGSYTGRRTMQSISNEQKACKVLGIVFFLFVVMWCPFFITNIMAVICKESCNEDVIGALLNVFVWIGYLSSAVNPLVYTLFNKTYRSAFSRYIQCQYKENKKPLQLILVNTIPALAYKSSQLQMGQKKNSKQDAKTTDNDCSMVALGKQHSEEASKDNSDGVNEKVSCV
Procedure: [^3H]-Ketanserin binding experiments are carried out in SPA 96-well format. Membranes used in this assay are prepared from AV-12 cells stably expressing recombinant 5-HT2A receptor (human). The incubation is initiated by the addition of a mixture of WGA YSi SPA beads (1 mg/well, Perkin Elmer (MA, USA), RPNQ0011) and 2 μg membranes to assay buffer (67 mM Tris, 0.5 mM EDTA; pH 7.6) containing 3.1 nM [^3H]-Ketanserin and varying concentrations of the test compound (10 point concentration response curves). Non-specific binding is determined in the presence of 20 μM 1-(1-Naphthyl)piperazine. Samples were incubated for four hours at room temperature (22° C.) and then read in a Microbeta Trilux.
as §2

[12] = target: hERG channel (Homo sapiens, UniProt Q12809); test: hERG channel assay
From the text: as §1

[13] = target: 5-HT6 (Homo sapiens, UniProt P50406); test: 5-HT6 binding
From the text: as §1

[14] = target: 5-HT1D (Homo sapiens, UniProt P28221); test: 5-HT1D binding
5-HT1D, sequence (P28221 whole entry, species assumed): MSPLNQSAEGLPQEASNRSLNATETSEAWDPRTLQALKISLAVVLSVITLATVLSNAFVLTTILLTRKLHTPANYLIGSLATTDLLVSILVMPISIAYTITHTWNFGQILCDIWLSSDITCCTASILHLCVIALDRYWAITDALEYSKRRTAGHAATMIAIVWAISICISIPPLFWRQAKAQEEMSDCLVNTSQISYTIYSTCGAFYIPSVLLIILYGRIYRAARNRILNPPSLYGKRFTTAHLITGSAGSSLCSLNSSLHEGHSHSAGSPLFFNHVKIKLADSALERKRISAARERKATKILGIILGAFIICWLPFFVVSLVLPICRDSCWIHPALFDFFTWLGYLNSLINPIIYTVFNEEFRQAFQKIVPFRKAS
From the text: as §1

[15] = target: 5-HT1B (Homo sapiens, UniProt P28222); test: 5-HT1B binding
From the text: as §1

[16] = target: Dopamine D2 (Homo sapiens, UniProt P14416); test: Dopamine D2 binding
From the text: as §1

[17] = target: Dopamine D3 (Homo sapiens, UniProt P35462); test: Dopamine D3 binding
Dopamine D3, sequence (P35462 whole entry): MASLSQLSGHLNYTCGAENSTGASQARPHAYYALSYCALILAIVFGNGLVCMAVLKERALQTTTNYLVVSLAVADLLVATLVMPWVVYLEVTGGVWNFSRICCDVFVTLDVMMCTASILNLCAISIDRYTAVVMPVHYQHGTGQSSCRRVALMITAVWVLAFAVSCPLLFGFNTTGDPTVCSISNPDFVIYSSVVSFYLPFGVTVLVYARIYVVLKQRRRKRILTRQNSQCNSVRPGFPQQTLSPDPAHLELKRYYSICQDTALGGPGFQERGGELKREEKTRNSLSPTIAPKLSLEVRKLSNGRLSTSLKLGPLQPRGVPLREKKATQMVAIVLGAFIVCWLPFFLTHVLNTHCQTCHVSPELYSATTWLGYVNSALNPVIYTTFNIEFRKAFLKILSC
From the text: as §1

[18] = target: Norepinephrine Transport (Homo sapiens, UniProt P23975); test: Norepinephrine transporter assay; type: binding
Norepinephrine Transport, sequence (P23975 whole entry): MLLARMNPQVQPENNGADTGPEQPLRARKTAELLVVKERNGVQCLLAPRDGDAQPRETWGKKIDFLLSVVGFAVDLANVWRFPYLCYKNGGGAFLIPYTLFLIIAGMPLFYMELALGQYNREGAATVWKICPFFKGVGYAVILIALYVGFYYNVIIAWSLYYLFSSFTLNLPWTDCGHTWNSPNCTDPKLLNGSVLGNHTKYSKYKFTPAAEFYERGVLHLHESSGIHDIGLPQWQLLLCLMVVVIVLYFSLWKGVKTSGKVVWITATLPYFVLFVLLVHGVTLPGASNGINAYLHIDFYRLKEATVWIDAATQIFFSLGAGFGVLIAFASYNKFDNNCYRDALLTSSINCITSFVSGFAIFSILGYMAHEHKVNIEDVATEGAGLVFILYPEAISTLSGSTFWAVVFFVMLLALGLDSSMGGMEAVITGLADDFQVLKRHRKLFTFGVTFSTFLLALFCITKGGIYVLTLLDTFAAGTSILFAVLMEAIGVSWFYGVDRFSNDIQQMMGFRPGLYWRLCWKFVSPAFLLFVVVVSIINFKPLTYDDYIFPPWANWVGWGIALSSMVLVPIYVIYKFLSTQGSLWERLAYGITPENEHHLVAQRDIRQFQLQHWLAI
From the text: as §1

[19] = target: 5-HT7 (Homo sapiens, UniProt P34969); test: 5-HT7 binding
From the text: as §1

[20] = target: Adrenergic alpha2B (Homo sapiens, UniProt P18089); test: Adrenergic alpha2B binding
Adrenergic alpha2B, sequence (P18089 whole entry): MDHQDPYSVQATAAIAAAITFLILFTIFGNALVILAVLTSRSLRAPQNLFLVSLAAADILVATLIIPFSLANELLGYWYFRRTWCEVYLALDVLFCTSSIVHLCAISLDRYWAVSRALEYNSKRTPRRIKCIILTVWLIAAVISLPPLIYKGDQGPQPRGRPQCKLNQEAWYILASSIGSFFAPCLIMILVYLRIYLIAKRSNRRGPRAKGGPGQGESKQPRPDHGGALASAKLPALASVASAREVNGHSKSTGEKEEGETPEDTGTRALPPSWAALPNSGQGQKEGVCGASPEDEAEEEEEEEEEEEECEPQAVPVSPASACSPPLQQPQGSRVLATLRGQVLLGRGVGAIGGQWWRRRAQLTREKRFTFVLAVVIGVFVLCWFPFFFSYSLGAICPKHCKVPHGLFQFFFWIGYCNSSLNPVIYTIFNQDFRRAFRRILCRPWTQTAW
From the text: as §1

[21] = target: Adrenergic alpha1B (Homo sapiens, UniProt P35368); test: Adrenergic alpha1B binding
Adrenergic alpha1B, sequence (P35368 whole entry): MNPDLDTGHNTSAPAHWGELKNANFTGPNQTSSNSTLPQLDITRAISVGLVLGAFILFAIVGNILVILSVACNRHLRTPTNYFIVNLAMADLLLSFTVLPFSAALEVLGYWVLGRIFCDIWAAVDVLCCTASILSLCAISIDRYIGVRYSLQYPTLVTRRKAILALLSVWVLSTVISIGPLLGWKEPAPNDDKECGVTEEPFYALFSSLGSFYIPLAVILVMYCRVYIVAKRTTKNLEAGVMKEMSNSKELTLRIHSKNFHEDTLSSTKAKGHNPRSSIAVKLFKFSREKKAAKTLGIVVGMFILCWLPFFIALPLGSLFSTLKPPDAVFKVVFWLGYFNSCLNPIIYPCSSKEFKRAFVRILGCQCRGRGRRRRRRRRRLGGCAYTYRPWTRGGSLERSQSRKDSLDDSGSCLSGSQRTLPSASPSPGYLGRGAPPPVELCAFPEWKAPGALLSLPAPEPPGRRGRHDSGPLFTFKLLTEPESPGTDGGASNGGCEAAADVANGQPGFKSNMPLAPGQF
From the text: as §1

[22] = target: Dopamine D1 (Homo sapiens, UniProt P21728); test: Dopamine D1 binding
Dopamine D1, sequence (P21728 whole entry): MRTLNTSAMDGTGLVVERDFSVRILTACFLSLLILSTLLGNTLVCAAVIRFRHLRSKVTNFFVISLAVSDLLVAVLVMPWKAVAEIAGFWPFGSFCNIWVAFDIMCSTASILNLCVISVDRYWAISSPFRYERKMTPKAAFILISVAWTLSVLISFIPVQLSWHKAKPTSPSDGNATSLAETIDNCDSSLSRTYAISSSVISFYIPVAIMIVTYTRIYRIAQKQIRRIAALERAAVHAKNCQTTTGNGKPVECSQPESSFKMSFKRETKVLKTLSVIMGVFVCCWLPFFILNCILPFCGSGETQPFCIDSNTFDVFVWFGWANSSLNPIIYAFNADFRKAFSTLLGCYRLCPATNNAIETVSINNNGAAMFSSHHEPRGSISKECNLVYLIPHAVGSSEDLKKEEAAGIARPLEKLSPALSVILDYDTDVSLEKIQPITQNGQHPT
From the text: as §1

Q: With `CC(C)(CN1CCN(C2=Nc3ccc(Cl)cc3Cn3cc(Br)cc32)CC1)C(=O)O` [Example 15, 3-[4-(2-Bromo-7-chloro-5H-pyrrolo[2,1-c][1,4]benzodiazepin-11-yl)piperazin-1-yl]-2,2-dimethylpropanoic acid dihydrochloride] as the molecule, how does the “REM sleep inhibition (in words)” value [1] read?
A: without significant

Q: And the “cumulative NREM sleep time (in words)” value [1]?
A: significantly increase

Q: What about the “cumulative total sleep time (in words)” value [1] of the same molecule?
A: significantly increase

Q: And the “inhibition of locomotor intensity (LMI) (in words)” value (from here on “inhibition of locomotor intensity”) [1]?
A: without significant

Q: What about the “rebound insomnia (in words)” value [1] of the same molecule?
A: without significant

Q: `CC(C)(CN1CCN(C2=Nc3ccc(Cl)cc3Cn3cc(Cl)cc32)CC1)C(=O)O` [Example 19, 3-[4-(2,7-Dichloro-5H-pyrrolo[2,1-c][1,4]benzodiazepin-11-yl)piperazin-1-yl]-2,2-dimethylpropanoic acid dihydrochloride] was tested. Which “REM sleep inhibition (in words)” value [1] did it give?
A: without significant

Q: What about the “cumulative NREM sleep time (in words)” value [1] of the same molecule?
A: significantly increase

Q: And the “cumulative total sleep time (in words)” value [1]?
A: significantly increase

Q: And the “inhibition of locomotor intensity” value [1]?
A: without significant

Q: And the “rebound insomnia (in words)” value [1]?
A: without significant

Q: With `Cc1cc2n(c1)Cc1cc(Cl)ccc1N=C2N1CCN(CC(C)(C)C(=O)O)CC1` [Example 1, 3-[4-(7-chloro-2-methyl-5H-pyrrolo[2,1-c][1,4]benzodiazepin-11-yl)piperazin-1-yl]-2,2-dimethylpropanoic acid] as the molecule, how does the pKi [2] read?
A: < 5.04

Q: And the pKi [3]?
A: 7.56

Q: What about the “Serotonin Transporter” value [4] of the same molecule?
A: >641

Q: And the pKi [5]?
A: < 5.40

Q: And the “Dopamine Transporter” value [6]?
A: >879

Q: What about the pKi [7] of the same molecule?
A: < 5.05

Q: And the pKi [8]?
A: < 5.16

Q: And the pKi [9]?
A: < 5.05

Q: And the pKi [10]?
A: 5.42

Q: And the pKi [11]?
A: 7.24

Q: What about the “hERG Channel” value [12] of the same molecule?
A: >100 µM

Q: And the pKi [13]?
A: 5.57

Q: What about the pKi [14] of the same molecule?
A: < 5.40

Q: What about the pKi [15] of the same molecule?
A: < 5.25

Q: And the pKi [16]?
A: < 5.35

Q: What about the pKi [17] of the same molecule?
A: < 5.25

Q: And the “Norepinephrine Transport” value [18]?
A: >682

Q: What about the pKi [19] of the same molecule?
A: < 5.69

Q: And the pKi [20]?
A: < 5.30

Q: And the pKi [21]?
A: < 4.96

Q: And the pKi [22]?
A: 5.42

Q: For `CCc1cc2n(c1)Cc1cc(Cl)ccc1N=C2N1CCN(CC(C)(C)C(=O)O)CC1` [Example 16, 3-[4-(7-Chloro-2-ethyl-5H-pyrrolo[2,1-c][1,4]benzodiazepin-11-yl)piperazin-1-yl]-2,2-dimethylpropanoic acid dihydrochloride], which “REM sleep inhibition (in words)” value [1] is on record?
A: without significant

Q: And the “cumulative NREM sleep time (in words)” value [1]?
A: significantly increase

Q: And the “cumulative total sleep time (in words)” value [1]?
A: significantly increase

Q: What about the “inhibition of locomotor intensity” value [1] of the same molecule?
A: without significant

Q: And the “rebound insomnia (in words)” value [1]?
A: without significant

Q: `CC(C)(CN1CCN(C2=Nc3ccc(Cl)cc3Cn3cc(C(F)(F)F)cc32)CC1)C(=O)O` [Example 18, 3-{4-[7-Chloro-2-(trifluoromethyl)-5H-pyrrolo[2,1-c][1,4]benzodiazepin-11-yl]piperazin-1-yl}-2,2-dimethylpropanoic acid dihydrochloride] was tested. Which “REM sleep inhibition (in words)” value [1] did it give?
A: without significant

Q: What about the “cumulative NREM sleep time (in words)” value [1] of the same molecule?
A: significantly increase

Q: And the “cumulative total sleep time (in words)” value [1]?
A: significantly increase

Q: What about the “inhibition of locomotor intensity” value [1] of the same molecule?
A: without significant

Q: And the “rebound insomnia (in words)” value [1]?
A: without significant
